Experimental findings from patent US20100130598A1, “METHODS FOR INDUCING PROGRAMMED CELL DEATH” (Novogen Research Pty Ltd., priority 2008, published 2010) are described below.

One series relates to MIAPaCa-2. The series can be described thus: MIAPaCa-2 pancreatic cancer xenograft. In kind it is in vivo, Balb/c nude mice. The following applies: MIAPaCa-2 model; Compound 10 100 mg/kg oral qd×12, gemcitabine 20 mg/kg q3d×4, alone or combined. As for the experimental part:
For xenograft studies, five week old male Balb/c nude mice were maintained on an isoflavone-free diet to remove background isoflavone levels contributed by standard feed. On the day of inoculation a suspension of MIAPaCa2 or HPAC cells was prepared in DMEM (-FBS), chilled on ice and then an equal volume of matrigel (BD) was added. Mice were inoculated subcutaneously with 3×10^6 MIAPaCa2 or HPAC cells bilaterally (midway between the axillary and inguinal region) along the dorsal surface, ensuring that cells to be injected were growing at mid-end log phase. Tumor growth was monitored over 10-15 days. Compound 10 was given orally by gavage in 1% carboxy methyl cellulose (CMC) as a vehicle. Gemcitabine was injected intraperiponeally in PBS. In combination groups animals were first dosed with Compound 10 and then dosed with gemcitabine using the respective administration schedule, dosage and route of delivery stated.

The test system of the next series is EOC tumors. The series can be described thus: Mouse EOC xenograft study. It is filed as in vivo. The following applies: 3 weeks; for T/C values (maximal tumor inhibition, treated/control): intra-peritoneal, Compound 1 100 mg/kg every day, Carboplatin 40 mg/kg q×7d, Paclitaxel 10 mg/kg q×3d. The procedure: Mouse xenograft studies. The in vivo study as approved by the Yale University Institutional Animal Care & Use Committee. Cells (1×10^6 cells) were resuspended in 200 μ1 total volume of 50% RPMI and 50% BD Matrigel Matrix (BD Biosciences, Bedford, Mass.) and injected subcutaneously into the right flank of NCR nude mice. Intra-peritoneal therapy commenced eight days post-inoculation as follows: Paclitaxel 10 mg/kg q×3d, Carboplatin 40 mg/kg q×7d, and Compound 1 in 20% HPBCD, 100 mg/kg every day. Control groups received 20% HPBCD in PBS. Mice were treated and observed for 3 weeks. Tumor size was determined by caliper measurements and anti-tumor activity was analyzed with respect to maximal tumor inhibition (treated/control, T/C) as described previously (Kamsteeg et al, 2003).

In another series the test system is caspases-3/7, -8, and -9. As to the kind of experiment: Caspase-3/7, -8, and -9 activity assay (Caspase-Glo) on cell lysates. Conditions: EOC cells, 24 h; increasing concentrations of Compound 1 or 2 μM Paclitaxel. In kind it is cell-based, human. The text has this: Protein preparation and cellular fractionation. After drug treatment, protein was extracted and measured as previously described (Alvero et al, 2006). For separation of the cytoplasmic and mitochondrial fractions, cell pellets were processed using the ApoAlert™ Cell Fractionation Kit (BD Biosciences, San Jose, Calif.) according to the manufacturer's instructions. For separation of the cytoplasmic and nuclear fractions, pellets were processed using NE-PER Nuclear and Cytoplasmic Extraction (Pierce Biotechnology, Inc., Rockford, Ill.). Caspase-3/7, -8, and -9 activity assay. Ten μg of protein in a 50 μl total volume was mixed with 50 μl of equilibrated Caspase-Glo^10 3/7, 8, or 9 reagents (Promega). After incubating at room temperature for 1 h, luminescence was measured using TD 20/20 Luminometer (Turner Designs, Sunnyvale, Calif.). Blank values were subtracted and fold-increase in activity was determined in relation to the control non-treatment.

The next series deals with MIAPaCa-2 cells. The series can be described thus: Apoptosis/necrosis by FACS (Annexin-V-FITC/PI), MIAPaCa-2. It is filed as cell-based, human. The following applies: MIAPaCa-2, 10 μM zVAD-fmk 1 h pre-treatment; 10 μM Compound 10 or 50 ng/mL TRAIL. As for the experimental part: Cells. Human pancreatic cell lines HPAC, MIAPaCa-2 and PANC-1 were obtained from the ATCC. (Manassas, Va.). The cells were maintained in DMEM media with Gln and high glucose (Mediatech, Manassas, Va.) with 10% fetal bovine serum (FBS, HyClone, Logan, Utah) and pencillin/streptomycin.
FACS Analysis. Apoptosis was measured by FACS analysis using Annexin-V-FITC and propidium iodide (PI) (Biovision, Mountain View, Calif.) as probes (Ahn et al., 2003). Mitochondrial membrane potential was measured by FACS analysis using JC-1 (Biovision) as a probe (Ahn et al., 2003). Cell cycle was analyzed on ethanol-fixed, RNaseA-treated cells staining with PI. In each spectrum, 10,000 gated events were recorded and analyzed with a FACSCalibur (BD Biosciences. San Jose, Calif.). All experiments were done in triplicate, error bars represent one standard deviation. Caspase inhibitor I (zVAD-fmk) was obtained from Calbiochem.

Regarding `Nc1ccn([C@@H]2O[C@H](CO)[C@@H](O)C2(F)F)c(=O)n1` [gemcitabine, reference compound], in the series with MIAPaCa-2, the “% T/C (mean terminal tumor burden)” value was found to be 79%.

In the case of `N.N.O=C([O-])C1(C(=O)[O-])CCC1.[Pt+2]` [carboplatin, reference compound], in the series with EOC tumors, the “T/C values (maximal tumor inhibition, treated/control)” value turned out to be 58%. In addition, in the series on EOC tumors (xenograft mice), the toxic side effects entry was “severe weight loss and cachexia”. For `CC(=O)O[C@H]1C(=O)[C@@]2(C)[C@H]([C@H](OC(=O)c3ccccc3)[C@]3(O)C[C@H](OC(=O)[C@H](O)[C@@H](NC(=O)c4ccccc4)c4ccccc4)C(C)=C1C3(C)C)[C@]1(OC(C)=O)CO[C@@H]1C[C@@H]2O` [Paclitaxel, reference compound], in the series on EOC tumors, the “T/C values (maximal tumor inhibition, treated/control)” value is reported as 58%. Also, the “caspase-3/7, -8, and -9 activities” value in the series on caspases-3/7, -8, and -9 was “increase”.

B1: TRAIL: TRAIL (Alexis), 50 ng/mL, positive caspase-dependent control (protein, UniProt P50591 1-281, looked up)
Tumor necrosis factor ligand …: MAMMEVQGGPSLGQTCVLIVIFTVLLQSLCVAVTYVYFTNELKQMQDKYSKSGIACFLKEDDSYWDPNDEESMNSPCWQVKWQLRQLVRKMILRTSEETISTVQEKQQNISPLVRERGPQRVAAHITGTRGRSNTLSSPNSKNEKALGRKINSWESSRSGHSFLSNLHLRNGELVIHEKGFYYIYSQTYFRFQEEIKENTKNDKQMVQYIYKYTSYPDPILLMKSARNSCWSKDAEYGLYSIYQGGIFELKENDRIFVSVTNEHLIDMDHEASFFGAFLVG
For B1, in the series with MIAPaCa-2 cells, the “effect of zVAD-fmk pre-treatment on induced apoptosis” value is recorded as “inhibition”.
